Where a chain is given by its changes, count along the chain named. Like-named read-outs stand apart in the source and are kept apart here.
Tests used:
Type in all cases: cell-based
AR protein [1] = target: T1, AR protein (Homo sapiens, UniProt P10275); assay: Degradation of AR protein in VCaP cells (Western blot); conditions: 8 hours; for inhibition at 0.01 µM: compound at 10 nM, read-out: Degradation rate of the AR protein in VCaP cells, 10 nM (%); for inhibition at 0.1 µM: compound at 100 nM, read-out: Degradation rate of the AR protein in VCaP cells, 100 nM (%)
T1 construct: degradation activity of the compounds disclosed in the present disclosure on AR protein in VCaP cells; host or cells: VCaP
T1 sequence (P10275 1-920): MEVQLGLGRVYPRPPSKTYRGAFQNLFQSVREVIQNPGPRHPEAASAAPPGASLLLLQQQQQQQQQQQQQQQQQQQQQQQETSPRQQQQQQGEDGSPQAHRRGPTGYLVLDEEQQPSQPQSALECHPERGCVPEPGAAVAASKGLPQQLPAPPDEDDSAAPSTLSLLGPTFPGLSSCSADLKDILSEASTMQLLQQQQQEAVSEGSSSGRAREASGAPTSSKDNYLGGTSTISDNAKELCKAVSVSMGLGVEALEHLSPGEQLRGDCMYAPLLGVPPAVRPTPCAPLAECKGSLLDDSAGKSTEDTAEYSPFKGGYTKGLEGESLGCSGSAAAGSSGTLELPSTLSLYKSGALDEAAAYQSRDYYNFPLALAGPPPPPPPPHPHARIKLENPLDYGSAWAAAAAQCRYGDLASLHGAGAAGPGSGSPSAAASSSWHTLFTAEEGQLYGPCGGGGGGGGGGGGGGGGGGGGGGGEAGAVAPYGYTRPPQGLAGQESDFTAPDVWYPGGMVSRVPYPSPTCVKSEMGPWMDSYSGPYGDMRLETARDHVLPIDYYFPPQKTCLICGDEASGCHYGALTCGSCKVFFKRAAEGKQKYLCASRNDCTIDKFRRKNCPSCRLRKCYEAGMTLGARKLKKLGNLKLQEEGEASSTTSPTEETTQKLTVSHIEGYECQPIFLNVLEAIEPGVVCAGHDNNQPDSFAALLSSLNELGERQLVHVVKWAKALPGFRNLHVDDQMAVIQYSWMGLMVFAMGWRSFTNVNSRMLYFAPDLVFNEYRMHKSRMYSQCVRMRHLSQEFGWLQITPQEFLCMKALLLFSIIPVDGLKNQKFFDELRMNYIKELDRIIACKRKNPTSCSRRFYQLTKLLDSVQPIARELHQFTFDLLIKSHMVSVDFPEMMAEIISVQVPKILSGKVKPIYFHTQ
How it was run: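 VCaP cells treated with compound alongside solvent controls for 8 h, then lysed in RIPA and protein quantified by BCA. AR detected by SDS-PAGE/Western blot with infrared imaging. Degradation rate calculated from band grayscale, with GAPDH as internal reference.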

AR protein [2] = target: T2, AR protein (Homo sapiens, UniProt P10275, T878A); assay: Degradation of AR protein in LNCaP cells (Western blot); conditions: for inhibition at 0.01 µM: read-out: Degradation rates of the AR protein in LNCaP cells, 10 nM (%); for inhibition at 0.1 µM: read-out: Degradation rates of the AR protein in LNCaP cells, 100 nM (%)
T2 construct: degradation activity of the compounds disclosed in the present disclosure on AR protein in LNCaP cells; host or cells: LNCaP FGC
T2 sequence (P10275 1-920 T878A): T1 sequence (P10275 1-920) with T878A
How it was run: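 AR assessed by SDS-PAGE/Western blot with infrared imaging; band greyscale normalised to GAPDH gave percent degradation.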

VCaP cells = assay: Inhibition of proliferation of VCaP cells (WST-8); conditions: Homo sapiens, read-out: IC50 for inhibiting the proliferation of VCaP cells
How it was run: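 VCaP FGC cells, 15000 per well in DMEM with 10% FBS, were cultured at 37° C, 5% CO2. On day nine, WST-8 reagent was added to read proliferation.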

LNCaP FGC cells = assay: Inhibition of proliferation of LNCaP cells (WST-8); conditions: Homo sapiens, LNCaP, 96 h
Method: The cells were cultured in a cell culture incubator with 5% CO2 at 37° C. overnight. […] On the sixth day, 96 well plates were taken out, and 20 μL of WST-8 (Beytime, C0040) reagent was added to each well.

[3] = LNCaP cells, compound 10 nM, 8 hours, Western blot grayscale, GAPDH internal reference
[4] = LNCaP cells, compound 100 nM, 8 hours, Western blot grayscale, GAPDH internal reference
[5] = VCaP cells, 168 hours, WST-8 absorbance at 450 nm
[6] = LNCaP FGC cells, 96 hours, WST-8 absorbance at 450 nm, read-out: IC50 for inhibiting the proliferation of LNCaP cells

inhibition at 0.01 µM (AR protein [2]; [3]) [%]	inhibition at 0.1 µM (AR protein [2]; [4]) [%]	IC50 (VCaP cells; [5]) [µM]	IC50 (LNCaP FGC cells; [6]) [µM]	Compound	inhibition at 0.01 µM (AR protein [1]) [%]	inhibition at 0.1 µM (AR protein [1]) [%]	IC50 (VCaP cells; VCaP, 168 h) [µM]	IC50 (LNCaP FGC cells; read-out: IC50 for inhibiting the proliferation of LNCaP cells) [µM]	inhibition at 0.01 µM (AR protein [2]; LNCaP, 8 h) [%]	inhibition at 0.1 µM (AR protein [2]; LNCaP, 8 h) [%]	IC50 (LNCaP FGC cells; read-out: IC50 for inhibiting the proliferation of LNCaP cells, LNCaP FGC cells, 96 hours, WST-8 absorbance at 450 nm) [µM]
27	63	0.082	66	COc1cc(O[C@H]2C(C)(C)[C@H](NC(=O)c3ccc(N4CCC(C)(CN5CCC6(CC5)COc5cc7c(cc5C6)C(=O)N(C5CCC(=O)NC5=O)C7=O)CC4)cc3)C2(C)C)ccc1C#N (stereo partly drawn) [Compound 289]	-21	15					
86	79	3.54	1.57	N#Cc1ccc(O[C@H]2CC[C@H](NC(=O)c3ccc(N4CCC(CN5CC6(CCc7cc8c(cc7O6)CN(C6CCC(=O)NC6=O)C8=O)C5)CC4)nn3)CC2)cc1Cl (stereo partly drawn) [Compound 7]	72	79					
17	50	0.5	0.8	N#Cc1ccc(O[C@H]2CC[C@H](NC(=O)c3ccc(N4CCC5(CC(N6CCC7(CCc8cc9c(cc8O7)C(=O)N(C7CCC(=O)NC7=O)C9=O)CC6)C5)C4)nn3)CC2)cc1Cl (stereo partly drawn) [Compound 35]	47	58					
28	62	0.85	1.9	N#Cc1ccc(O[C@H]2CC[C@H](NC(=O)c3ccc(N4CCC5(CCC(N6CCC7(CCc8cc9c(cc8O7)C(=O)N(C7CCC(=O)NC7=O)C9=O)CC6)CC5)CC4)nn3)CC2)cc1Cl (stereo partly drawn) [Compound 30]	39	64					
58	60	6.2	3.9	N#Cc1ccc(O[C@H]2CC[C@H](NC(=O)c3ccc(N4CCC5(CCc6cc7c(cc6O5)C(=O)N(C5CCC(=O)NC5=O)C7=O)CC4)nn3)CC2)cc1Cl (stereo partly drawn) [Compound 28]	9	35					
				N#Cc1ccc(O[C@H]2CC[C@H](NC(=O)c3ccc(N4CCC(N5CCC6(CCc7cc8c(cc7O6)C(=O)N(C6CCC(=O)NC6=O)C8=O)CC5)CC4)nn3)CC2)cc1Cl (stereo partly drawn) [Compound 26]	48	56	0.75		61	56	1.2
7	57	0.11	4.94	N#Cc1ccc(O[C@H]2CC[C@H](NC(=O)c3ccc(N4CCC(CN5CCC6(CC5)Oc5cc7c(cc5CC6(F)F)C(=O)N(C5CCC(=O)NC5=O)C7=O)CC4)nn3)CC2)cc1Cl (stereo partly drawn) [Compound 18]	59	69					
41	64	4.4	2.4	N#Cc1ccc(O[C@H]2CC[C@H](NC(=O)c3ccc(N4CCC5(CC4)COc4cc6c(cc4C5)C(=O)N(C4CCC(=O)NC4=O)C6=O)nn3)CC2)cc1Cl (stereo partly drawn) [Compound 60]	41	64					

Compound	inhibition at 0.01 µM (AR protein [2]; [3]) [%]	inhibition at 0.1 µM (AR protein [2]; [4]) [%]	IC50 (VCaP cells; [5]) [µM]	IC50 (LNCaP FGC cells; [6]) [µM]	inhibition at 0.01 µM (AR protein [1]) [%]	inhibition at 0.1 µM (AR protein [1]) [%]	IC50 (VCaP cells; VCaP, 168 h) [µM]	IC50 (LNCaP FGC cells; read-out: IC50 for inhibiting the proliferation of LNCaP cells) [µM]	inhibition at 0.01 µM (AR protein [2]; LNCaP, 8 h) [%]	inhibition at 0.1 µM (AR protein [2]; LNCaP, 8 h) [%]	IC50 (LNCaP FGC cells; read-out: IC50 for inhibiting the proliferation of LNCaP cells, LNCaP FGC cells, 96 hours, WST-8 absorbance at 450 nm) [µM]
N#Cc1ccc(O[C@H]2CC[C@H](NC(=O)c3ccc(N4CCC(CC5CC5)(CN5CCC6(CC5)COc5c6ccc6c5CN(C5CCC(=O)NC5=O)C6=O)CC4)nn3)CC2)cc1Cl (stereo partly drawn) [Compound 211]	45	28			-4	46	0.0025	0.055			
CCC1(CN2CCC3(CC2)COc2c3ccc3c2C(=O)N(C2CCC(=O)NC2=O)C3=O)CCN(c2ccc(C(=O)N[C@H]3CC[C@H](Oc4ccc(C#N)c(C(F)(F)F)c4)CC3)nn2)CC1 (stereo partly drawn) [Compound 248]	-53	-16	0.21	5.99	2	17					
CCC1(CN2CCC3(CC2)COc2c3ccc3c2CN(C2CCC(=O)NC2=O)C3=O)CCN(c2ccc(C(=O)N[C@H]3C(C)(C)[C@H](Oc4ccc(C#N)c(OC)c4)C3(C)C)cc2)CC1 (stereo partly drawn) [Compound 294]	54	57	0.002	0.077	13	62					
COc1cc(OC2C(C)(C)C(NC(=O)c3ccc(N4CCC(CN5CCC6(CC5)COc5cc7c(cc56)C(=O)N(C5CCC(=O)NC5=O)C7=O)CC4)cc3)C2(C)C)ccc1C#N (stereo not drawn) [Compound 280]	36	52	0.045	9.25	15	77					
N#Cc1ccc(O[C@H]2CC[C@H](NC(=O)c3ccc(N4CCC(F)(CN5CCC6(CC5)COc5c6ccc6c5CN(C5CCC(=O)NC5=O)C6=O)CC4)cn3)CC2)cc1Cl (stereo partly drawn) [Compound 260]	13	9	0.001	0.004	15	74					
COc1cc(O[C@H]2C(C)(C)[C@H](NC(=O)c3ccc(N4CCC(C)(CN5CCC6(CC5)COc5cc7c(cc56)C(=O)N(C5CCC(=O)NC5=O)C7=O)CC4)cc3)C2(C)C)ccc1C#N (stereo partly drawn) [Compound 288]	-18	18	0.074	65.9	7	41					
